According to patent US12583839B2, “PD-L1 antagonist compound” (ADLAI NORTYE BIOPHARMA CO., LTD., priority 2019, dated 2026):
pEC50: −log10 of the molar value.

Molecular target: T1, PD-1/PD-L1 (Homo sapiens, UniProt Q9NZQ7)
T1 construct: 60535 (PD-1/NFAT-Reporter-Jurkat); host or cells: CHO cells expressing PD-L1; Jurkat cells expressing PD-1
Assay: Detection of biological activity of PD-1/PD-L1 signaling inhibition at the cellular level (NFAT luciferase reporter, PD-1/NFAT-Reporter-Jurkat cells co-cultured with TCR activator/PD-L1-CHO cells)
Type: cell-based
Details: PD-1/NFAT-Reporter-Jurkat + TCR activator/PD-L1-CHO co-culture, 6 hours; Atezolizumab as positive control
Procedure, shortened: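 CHO cells expressing PD-L1 and a TCR activator were seeded overnight at 37° C, pre-treated with compound for 30 minutes, then co-cultured 6 hours with Jurkat cells carrying PD-1 and an NFAT-luciferase reporter. Luminescence was read, and inhibition % was normalised between 0.1% DMSO and about 10 nM atezolizumab controls.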

T1 sequence (Q9NZQ7 19-290): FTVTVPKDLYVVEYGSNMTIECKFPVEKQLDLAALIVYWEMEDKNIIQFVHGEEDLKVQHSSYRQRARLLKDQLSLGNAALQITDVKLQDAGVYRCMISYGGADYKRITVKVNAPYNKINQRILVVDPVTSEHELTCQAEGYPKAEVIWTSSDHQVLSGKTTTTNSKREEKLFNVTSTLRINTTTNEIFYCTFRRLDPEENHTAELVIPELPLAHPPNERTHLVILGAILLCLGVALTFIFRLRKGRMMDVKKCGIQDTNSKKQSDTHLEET

| Compound | pEC50 |
| --- | --- |
| COc1cc(Cn2ncc3c(-c4cccc(-c5ccc(CNC[C@@H]6CCC(=O)N6)c(OC)n5)c4Cl)cccc32)c(Cl)cc1CN(C)[C@H]1CC[C@H](C(=O)O)CC1 [Compound 152] | 7.25 |
| COc1cc(-c2cccc(-c3cccc4c3cnn4Cc3cc(OC)c(CN(C)C4CCC(C(=O)O)CC4)cc3Cl)c2Cl)ccc1CNC[C@@H]1CCCC(=O)N1 (stereo partly shown) [Compound 153] | 7.03 |
| COc1cc(-c2cccc(-c3c(Cl)ccc4c3cnn4Cc3cc(OC)c(CN[C@@H](CO)C(=O)O)cc3Cl)c2Cl)ccc1CNC[C@@H]1CCC(=O)N1 [Compound 154] | 6.41 |
| COc1cc(Cn2ncc3c(-c4cccc(-c5cc(Cl)c(CNC[C@@H]6CCC(=O)N6)c(OC)c5)c4Cl)cccc32)c(Cl)cc1CN(C)CC1CCC(C(=O)O)CC1 (stereo partly shown) [Compound 155] | 6.84 |
| COc1cc(Cn2ncc3c(-c4cccc(-c5ccc(CNC[C@@H]6CCC(=O)N6)c(OC)n5)c4Cl)cccc32)c(Cl)c(F)c1CN(C)C12CCC(C(=O)O)(CC1)CC2 [Compound 157] | 7.05 |
| COc1cc(-c2cccc(-c3ccc(Cl)c4c3cnn4Cc3cc(OC)c(CN[C@@H](CO)C(=O)O)cc3Cl)c2Cl)ccc1CNC[C@@H]1CCC(=O)N1 [Compound 158] | 6.00 |
| COc1cc(Cn2ncc3c(-c4cccc(-c5cc(F)c(CNC[C@@H]6CCC(=O)N6)c(OC)c5)c4Cl)cccc32)c(Cl)cc1CN(C)C12CCC(CC(=O)O)(CC1)CC2 [Compound 160] | 7.34 |
| COc1cc(Cn2ncc3c(-c4cccc(-c5cc(F)c(CNC[C@@H]6CCC(=O)N6)c(OC)c5)c4Cl)cccc32)c(Cl)cc1CN(C)[C@H]1CC[C@H](O)CC1 [Compound 162] | 7.36 |
| COc1cc(Cn2ncc3c(-c4cccc(-c5ccc(CNC[C@@H]6CCC(=O)N6)c(OC)n5)c4C)cccc32)c(Cl)cc1CN(C)C12CCC(C(=O)O)(CC1)CC2 [Compound 164] | 6.98 |
| COc1nc(-c2cccc(-c3cccc4c3cnn4Cc3nc(OC)c(CN(C)C45CCC(C(=O)O)(CC4)CC5)cc3Cl)c2C)ccc1CNC[C@@H]1CCC(=O)N1 [Compound 169] | 7.23 |
| COc1cc(Cn2ncc3c(-c4cccc(-c5cc(F)c(CNC[C@@H]6CCC(=O)N6)c(OC)c5)c4Cl)cccc32)c(Cl)cc1CN(CCO)[C@H]1CC[C@H](C(=O)O)CC1 [Compound 171] | 7.40 |
| COc1cc(-c2cccc(-c3cccc4c3cnn4Cc3cc(N)c(CN(C)[C@H]4CC[C@H](C(=O)O)CC4)cc3Cl)c2Cl)cc(F)c1CNC[C@@H]1CCC(=O)N1 [Compound 173] | 6.65 |

Continued by rising pEC50, values first:

| pEC50 | Compound |
| --- | --- |
| 6.58 | COc1cc(Cn2ncc3c(-c4cccc(-c5cnc(CNC[C@@H]6CCC(=O)N6)c(OC)n5)c4C)cccc32)c(Cl)cc1CN(C)C12CCC(C(=O)O)(CC1)CC2 [Compound 170] |
| 7.12 | COc1cc(Cn2ncc3c(-c4cccc(-c5cc(F)c(CNC[C@@H]6CCC(=O)N6)c(OC)c5)c4C)cccc32)c(Cl)cc1CN(C)C12CCC(C(=O)O)(CC1)CC2 [Compound 161] |
| 7.16 | COc1cc(Cn2ncc3c(-c4cccc(-c5cc(F)c(CNC[C@@H]6CCCC(=O)N6)c(OC)c5)c4Cl)cccc32)c(Cl)cc1CN(C)C12CCC(C(=O)O)(CC1)CC2 [Compound 168] |
| 7.20 | COc1cc(-c2cccc(-c3cccc4c3cnn4Cc3nc(OC)c(CN(C)[C@H]4CC[C@H](C(=O)O)CC4)cc3Cl)c2Cl)ccc1CNC[C@@H]1CCC(=O)N1 [Compound 151] |
| 7.28 | COc1cc(Cn2ncc3c(-c4cccc(-c5cc(F)c(CNC[C@H]6CCC(=O)N6)c(OC)c5)c4Cl)cccc32)c(Cl)cc1CN(C)C12CCC(C(=O)O)(CC1)CC2 [Compound 167] |
| 7.31 | COc1cc(-c2cccc(-c3cccc4c3cnn4Cc3nc(OC)c(CN(C)C45CCC(C(=O)O)(CC4)CC5)cc3Cl)c2C)cc(F)c1CNC[C@@H]1CCC(=O)N1 [Compound 166] |
| 7.43 | CCN(Cc1cc(Cl)c(Cn2ncc3c(-c4cccc(-c5cc(F)c(CNC[C@@H]6CCC(=O)N6)c(OC)c5)c4Cl)cccc32)cc1OC)C12CCC(C(=O)O)(CC1)CC2 [Compound 159] |
| 7.49 | COc1cc(-c2cccc(-c3cccc4c3cnn4Cc3nc(OC)c(CN(C)C45CCC(C(=O)O)(CC4)CC5)cc3Cl)c2Cl)cc(F)c1CNC[C@@H]1CCCC(=O)N1 [Compound 172] |
| 7.52 | COc1cc(Cn2ncc3c(-c4cccc(-c5cc(F)c(CNC[C@@H]6CCC(=O)N6)c(OC)c5)c4Cl)cccc32)c(C(F)(F)F)cc1CN(C)C12CCC(C(=O)O)(CC1)CC2 [Compound 150] |
| 7.59 | COc1cc(-c2cccc(-c3cccc4c3cnn4Cc3nc(OC)c(CN(C)[C@H]4CC[C@H](C(=O)O)CC4)cc3Cl)c2Cl)cc(F)c1CNC[C@@H]1CCC(=O)N1 [Compound 163] |
